Emax and EC50 data for 14 molecules are collected here from patent US9656962B2, “Ring-contracted morphinans and the use thereof” (Purdue Pharma L.P., priority 2013, dated 2017).

Test [1] has as its target μ-opioid receptor (Homo sapiens (Human), UniProt P35372). As to the kind of experiment: μ-opioid receptor [35S]GTPγS functional assay, U-2 OS cells (Table 5). The settings on record: for Emax: relative to DAMGO; for EC50: μ GTP. It is filed as biochemical. On the procedure: μ-Opioid Receptor Functional Assay Procedures: [^35S]GTPγS functional assays were conducted using freshly thawed μ-receptor membranes prepared in-house from a cell line expressing recombinant μ opioid receptor in a HEK-293, CHO or U-2 OS cell background, or purchased from a commercial source (Perkin Elmer, Shelton, Conn.; or DiscovRx, Fremont, Calif.). Assay reactions were prepared by sequentially adding the following reagents to binding buffer (100 mM NaCl, 10 mM MgCl2, 20 mM HEPES, pH 7.4) on ice (final concentrations indicated): membrane protein (0.026 mg/mL), saponin ([…]), GDP ([…]) and [^35S]GTPγS (0.20 nM; Perkin Elmer, Shelton, Conn.). The prepared membrane solution (190 μl/well) was transferred to 96-shallow well polypropylene plates containing 10 μl of 20× concentrated stock solutions of the agonist [D-Ala^2, N-methyl-Phe^4 Gly-ol^5]-enkephalin (DAMGO) prepared in dimethyl sulfoxide (DMSO). Plates were incubated for 30 min at about 25° C. with shaking Reactions were terminated by rapid filtration onto 96-well Unifilter GF/B filter plates (Perkin Elmer, Shelton, Conn.) using a 96-well tissue harvester (Perkin Elmer, Shelton, Conn.) followed by three filtration washes with 200 μl of ice-cold wash buffer (10 mM NaH2PO4, 10 mM Na2HPO4, pH 7.4). Filter plates were subsequently dried at 50° C. for 2-3 hours. BetaScint scintillation cocktail (Perkin Elmer, Shelton, Conn.) was added (50 μl/well) and plates were counted using a Packard Top-Count for 1 min/well. Data were analyzed using the sigmoidal dose-response curve fitting functions in GraphPad PRISM v. 3.0, or an in-house function for non-linear, sigmoidal dose-response curve-fitting. [^35S]GTPγS functional assays can also be conducted using freshly thawed μ-receptor membranes prepared from a cell line expressing recombinant μ opioid receptor in a CHO-K1 cell background.
μ GTP Emax (%) is the maximal effect elicited by a compound relative to the effect elicited by DAMGO, a standard μ agonist.

The target of test [2] is κ-opioid receptor (Homo sapiens (Human), UniProt P41145). Briefly: κ-opioid receptor [35S]GTPγS functional assay, U-2 OS cells (Table 5). As to conditions: for Emax: relative to U69,593; for EC50: κ GTP. In kind it is biochemical. On the procedure:
κ-Opioid Receptor Functional Assay Procedures: Functional [^35S]GTPγS binding assays were conducted as follows. κ opioid receptor membrane solution was prepared by sequentially adding final concentrations of 0.026 μg/μl κ membrane protein (in-house), 10 μg/mL saponin, 3 μM GDP and 0.20 nM [^35S]GTPγS to binding buffer (100 mM NaCl, 10 mM MgCl2, 20 mM HEPES, pH 7.4) on ice. The prepared membrane solution (190 μl/well) was transferred to 96-shallow well polypropylene plates containing 10 μl of 20× concentrated stock solutions of agonist prepared in DMSO. Plates were incubated for 30 min at a temperature of about 25° C. with shaking. Reactions were terminated by rapid filtration onto 96-well Unifilter GF/B filter plates (Perkin Elmer, Shelton, Conn.) using a 96-well tissue harvester (Packard) and followed by three filtration washes with 200 μl ice-cold binding buffer (10 mM NaH2PO4, 10 mM Na2HPO4, pH 7.4). Filter plates were subsequently dried at 50° C. for 2-3 hours. Fifty μl/well scintillation cocktail (Perkin Elmer, Shelton, Conn.) was added and plates were counted in a Packard Top-Count for 1 min/well.
κ GTP Emax (%) is the maximal effect elicited by a compound relative to the effect elicited by U69,593.
The following TABLE 5 provides results on the activity response of certain Compounds of the Invention at the μ- and κ-opioid receptors determined as described above using U-2 OS cells.
A general note: Binding of GTPγS marks nucleotide exchange on a G protein.

Consider `N[C@H]1CC23CCN(CC4CC4)[C@H](Cc4ccc(O)cc42)[C@]3(O)C1` (stereo in doubt) [Compound 29, (2S,3aS,4R,9bS)-2-amino-12-(cyclopropylmethyl)-1,2,3,3a,4,5-hexahydro-4,9b-(epiminoethano)-cyclopenta[a]naphthalene-3a,8-diol], for which, in test [1], the Emax is 22 ± 1.73% and the concentration giving a half-maximal response (EC50) was 0.00778 ± 0.00163 µM. In test [2], the Emax came out at 107 ± 3.18% and the EC50 is 0.62 ± 0.04 nM.

Turning to `COc1ccc2c(c1)[C@]13CCN(CC4CC4)[C@H](C2)[C@]1(O)C[C@H](C(=O)O)C3` [Compound 14, (2R,3aS,4R,9bS)-12-(cyclopropylmethyl)-3a-hydroxy-8-methoxy-1,2,3,3a,4,5-hexahydro-4,9b-(epiminoethano)-cyclopenta[a]naphthalene-2-carboxylic acid], the results for the Emax in test [1] and in test [2] were 26.7 ± 2.4% and 100 ± 2.52%, respectively. Also, the EC50 in test [1] was determined as 0.126 ± 0.0377 µM; in test [2], 147 ± 11.6 nM.

In test [1], `COc1ccc2c(c1)[C@]13CCN(CC4CC4)[C@H](C2)[C@]1(O)C[C@H](C(=O)N1CCCC1)C3` [Compound 19, ((2R,3aS,4R,9bS)-12-(cyclopropylmethyl)-3a-hydroxy-8-methoxy-1,2,3,3a,4,5-hexahydro-4,9b-(epiminoethano)cyclo-penta[a]naphthalene-2-yl)(pyrrolidin-1-yl)methanone] displayed an Emax of 29.3 ± 5.93% and an EC50 of 2.96 ± 0.864 µM. Also, in test [2], the maximal response (Emax) was found to be 97.7 ± 0.67% and the 50% effective concentration (EC50) worked out at 4720 ± 150 nM.

In test [1], `COc1ccc2c(c1)[C@]13CCN(CC4CC4)[C@H](C2)[C@]1(O)C[C@@H](C(=O)N1CCCC1)C3` [Compound 20, ((2S,3aS,4R,9bS)-12-(cyclopropylmethyl)-3a-hydroxy-8-methoxy-1,2,3,3a,4,5-hexahydro-4,9b-(epiminoethano)cyclo-penta[a]naphthalene-2-yl)(pyrrolidin-1-yl)methanone] displayed a maximal response (Emax) of 43.3 ± 2.4% and an EC50 of 1.23 ± 0.0835 µM. Further, in test [2], the maximal response (Emax) is 87.7 ± 4.33% and it took 4400 ± 357 nM to reach a half-maximal effect (EC50).

Regarding `COc1ccc2c(c1)[C@]13CCN(CC4CC4)[C@H](C2)[C@]1(O)C[C@H](N)C3` [Compound 21, (2R,3aS,4R,9bS)-2-amino-12-(cyclopropylmethyl)-8-methoxy-1,2,3,3a,4,5-hexahydro-4,9b-(epimino-ethano)cyclopenta[a]naphthalene-3a-ol], the maximum response (Emax) in test [1] was 8.67 ± 1.76%; in test [2], 90 ± 2.08%. In addition, the EC50 is over 20 µM in test [1] (bound given in μM) and 5590 ± 738 nM in test [2].

For the molecule `COc1ccc2c(c1)[C@]13CCN(CC4CC4)[C@H](C2)[C@]1(O)C[C@@H](C#N)C3` [Compound 26, (2S,3aS,4R,9bS)-12-(cyclopropylmethyl)-3a-hydroxy-8-methoxy-1,2,3,3a,4,5-hexahydro-4,9b-(epiminoethano)-cyclopenta[a]naphthalene-2-carbonitrile], in test [1], the Emax was 63 ± 5.77% and the EC50 is 1.13 ± 0.117 µM. Besides, in test [2], the Emax came out at 106 ± 2.03% and the half-maximal effective concentration (EC50) stood at 829 ± 100 nM.

In test [1], `CC(C)CNC(=O)[C@@H]1C[C@]23CCN(CC4CC4)[C@H](Cc4ccc(O)cc42)[C@]3(O)C1` [Compound 35, (2R,3aS,4R,9bS)-12-(cyclopropylmethyl)-3a,8-dihydroxy-N-isobutyl-1,2,3,3a,4,5-hexahydro-4,9b-(epiminoethano)cyclo-penta[a]naphthalene-2-carboxamide] yielded an Emax of 29.7 ± 0.33% and an EC50 of 0.0197 ± 0.00527 µM. In test [2], the Emax is 111 ± 2.96% and the response was half-maximal at 7.75 ± 0.41 nM (EC50).

In test [1], `O=C(NCc1ccc(Cl)cc1Cl)[C@@H]1C[C@]23CCN(CC4CC4)[C@H](Cc4ccc(O)cc42)[C@]3(O)C1` [Compound 44, (2R,3aS,4R,9bS)-12-(cyclopropylmethyl)-N-(2,4-dichlorobenzyl)-3a,8-dihydroxy-1,2,3,3a,4,5-hexahydro-4,9b-(epimino-ethano)cyclopenta[a]naphthalene-2-carboxamide] yielded a maximal effect (Emax) of 28.3 ± 1.86% and an EC50 of 0.00375 ± 0.00035 µM. In test [2], this molecule yielded an Emax of 94.7 ± 7.13% and an EC50 of 0.26 ± 0.033 nM.

In test [1], `O=C(NCCc1ccccc1)[C@@H]1C[C@]23CCN(CC4CC4)[C@H](Cc4ccc(O)cc42)[C@]3(O)C1` [Compound 50, (2R,3aS,4R,9bS)-12-(cyclopropylmethyl)-3a,8-dihydroxy-N-phenethyl-1,2,3,3a,4,5-hexahydro-4,9b-(epiminoethano)-cyclopenta[a]naphthalene-2-carboxamide] registered a maximal effect (Emax) of 23.3 ± 1.86% and an EC50 of 0.0069 ± 0.00054 µM. In test [2], this molecule yielded an Emax of 107.7 ± 0.88% and a 50% effective concentration (EC50) of 1.95 ± 0.33 nM.

In the case of `O=C([C@@H]1C[C@]23CCN(CC4CC4)[C@H](Cc4ccc(O)cc42)[C@]3(O)C1)N1CCCCC1` [Compound 56, ((2R,3aS,4R,9bS)-12-(cyclopropylmethyl)-3a,8-dihydroxy-1,2,3,3a,4,5-hexahydro-4,9b-(epiminoethano)cyclopenta-[a]naphthalen-2-yl)(piperidin-1-yl)methanone], in test [1], the maximal response (Emax) was 16 ± 1.53% and the 50% effective concentration (EC50) is 0.0104 ± 0.00203 µM. In test [2], this molecule registered an Emax of 97.8 ± 3.67% and an EC50 of 20.8 ± 1.79 nM.

On to `O=C([C@H]1C[C@]23CCN(CC4CC4)[C@H](Cc4ccc(O)cc42)[C@]3(O)C1)N1CCCCC1` [Compound 57, ((2S,3aS,4R,9bS)-12-(cyclopropylmethyl)-3a,8-dihydroxy-1,2,3,3a,4,5-hexahydro-4,9b-(epiminoethano)cyclopenta-[a]naphthalen-2-yl)(piperidin-1-yl)methanone], for which the Emax turned out to be 37.7 ± 6.69% in test [1] and 90.3 ± 2.6% in test [2]. The EC50 in test [1] stood at 0.00279 ± 0.00076 µM; in test [2], 5.88 ± 0.79 nM.

In test [1], `O=C([C@@H]1C[C@]23CCN(CC4CC4)[C@H](Cc4ccc(O)cc42)[C@]3(O)C1)N1CCOCC1` [Compound 58, ((2R,3aS,4R,9bS)-12-(cyclopropylmethyl)-3a,8-dihydroxy-1,2,3,3a,4,5-hexahydro-4,9b-(epiminoethano)cyclopenta-[a]naphthalen-2-yl)(morpholino)-methanone] registered an Emax of 21.7 ± 5.49% and an EC50 of 0.0143 ± 0.00543 µM. In test [2], this molecule displayed an Emax of 93.7 ± 4.48% and an EC50 of 24.3 ± 5.67 nM.

In test [1], `CCN(CC)C(=O)[C@@H]1C[C@]23CCN(CC4CC4)[C@H](Cc4ccc(O)cc42)[C@]3(O)C1` [Compound 59, (2R,3aS,4R,9bS)-12-(cyclopropylmethyl)-N,N-diethyl-3a,8-dihydroxy-1,2,3,3a,4,5-hexahydro-4,9b-(epiminoethano)cyclo-penta[a]naphthalene-2-carboxamide] registered an Emax of 25.7 ± 0.33% and a 50% effective concentration (EC50) of 0.0226 ± 0.00631 µM. Besides, in test [2], the maximum response (Emax) was 105 ± 4.33% and the concentration giving a half-maximal response (EC50) amounted to 26 ± 2.61 nM.

In test [1], `CN(C)C(=O)[C@@H]1C[C@]23CCN(CC4CC4)[C@H](Cc4ccc(O)cc42)[C@]3(O)C1` [Compound 62, (2R,3aS,4R,9bS)-12-(cyclopropylmethyl)-3a,8-dihydroxy-N,N-dimethyl-1,2,3,3a,4,5-hexahydro-4,9b-(epiminoethano)cyclo-penta[a]naphthalene-2-carboxamide] registered a maximal response (Emax) of 25 ± 0.58% and an EC50 of 0.017 ± 0.00331 µM. In test [2], the Emax came to 109 ± 3.67% and the EC50 came out at 23.6 ± 1.09 nM.

What is called Emax is the size of the effect at its maximum, as opposed to the concentration needed. For orientation: EC50 means the concentration at which the effect is half-maximal. A higher EC50 goes with a need for much substance.
